In a melting point compilation (Tetko et al.; mined from patent text by program, amines drawn as free bases though some values may be those of a salt):

melting point [°C]	SMILES
171 to 173	CCn1ncnc1COc1nn2c(-c3ccccc3F)nncc2c1-c1ccccc1
130 to 131	Cc1oc(-c2ccco2)nc1COc1ccc(COc2nn(Cc3ccccc3)cc2C=O)cc1OCc1ccccc1
170 to 171	CC(C)(C)c1cc(CCc2cc(C(C)(C)C)c(O)c(C(C)(C)C)c2)cc(C(C)(C)C)c1O
162	COc1ccc2cc(C(C)C(=O)NCCN(O)C(N)=O)ccc2c1 (stereo not drawn)
142 to 145	CNC(=S)C1(c2cccnc2)CCCCC1NOCCO (stereo not drawn)
141 to 143	COC(=O)CCCc1c(-c2ccc(F)cc2)[nH]c2ccc(-c3ccc(O)cc3)cc12
151 to 158	CCCCc1c(OC(=O)C(C)(C)C)n(-c2ccc(OC(C)=O)cc2)n(-c2ccccc2)c1=O
279 to 281	CC1(C)Oc2ccc(S(=O)(=O)C(F)(F)F)cc2[C@@H](N2Cc3ccccc3C2=O)[C@@H]1O (relative stereo)
223	NS(=O)(=O)c1cc(F)c(C(F)(F)F)cc1NC(=O)c1ccccc1
256	CN1CCC(Nc2nc3ncnc(O)c3n2Cc2ccc(F)cc2)CC1
235	Cc1c(C(=O)Nc2cccc(C#N)c2N2CCC(CN3CCOCC3)CC2)cnn1-c1ccc(Cl)cc1
153 to 157	O=C(NCCN1CCCC1)c1ccc(OCc2ccc(-c3ccccc3)cc2)nc1
250	CCOc1ccc(-c2cc(C(F)(F)F)n3ncc(-c4ccnc(C)c4)c3n2)cc1C(F)(F)F
162	CC1(C)CC(=O)C(C(=O)c2ccc(Cl)cc2[N+](=O)[O-])C(=O)N1 (stereo not drawn)
128 to 129	CC(C)c1nccn1Cc1ccc2c(c1)-c1[nH]nc(-c3ccsc3)c1C2
201 to 206	COc1cc(OCc2ccncc2)ccc1/C=C/c1cc(/C=C/c2cccc3cc[nH]c23)n[nH]1
122 to 124	COc1ccc(P(c2cc(C)cc(C(C)(C)C)c2O)c2cc(C)cc(C(C)(C)C)c2O)cc1
138 to 140	CCOC(=O)c1c(O)c2ccc(C)nc2n(CC)c1=O
174	CCCNC(=O)C(O)C1c2ccccc2C(=O)N1c1ccc2ccc(Br)nc2n1 (stereo not drawn)
133 to 142	CN1CCC(C2(O)c3ccc(Cl)cc3Sc3ccc(F)cc32)CC1 (stereo not drawn)
> 250	N#CNC(=S)Nc1ccc(Cl)cc1
133 to 134	O=C1CS(=O)(=O)c2ccccc21
117 to 119	CC(=O)N1CCCN(NC(=O)c2ccc(F)cc2)CC1

melting point [°C]	SMILES
289 to 291	COc1cccc2c(=O)n(/C=C/C(=O)O)cnc12
140 to 143	CC(=O)Oc1ccc(C2CC(=O)OC(=O)C2)cc1
156 to 158	CN(Cc1cc2c3c(c1)c(=O)c(C(=O)NCc1ccc(F)cc1)cn3CC(=O)N2C)C[C@@H](O)c1nccs1
145 to 147	CC(=O)NC1(c2ccc(CN3CCN(c4ccccn4)CC3)cc2)CC1
138 to 141	O=S(=O)(c1c[nH]cc1-c1ccc(Cl)cc1)C(F)(F)F
56	Cc1cnc2c(S(=O)(=O)N[C@@H](CCCc3cn(C(c4ccccc4)(c4ccccc4)c4ccccc4)cn3)C(=O)OC(C)(C)C)cccc2c1
205 to 207	CC(C)OC(=O)c1cc(-n2c(=O)[nH]c3c(c2=O)CCCC3)ccc1Cl
203 to 206	c1ccc2c(c1)N=C(N1CCNCC1)c1sccc1N2
78.5 to 81.5	COC(=O)NN=C(OC)OC
138 to 140	O=C1CCC(n2nc(-c3c(-c4ccccc4)nn4ccccc34)ccc2=O)CC1
> 300	Clc1ccc(-c2cnn3cnnc3n2)cc1
131 to 132	N#Cc1c(Br)c(C(F)(F)F)n(CBr)c1-c1ccc(Cl)cc1
150 to 152	CCNc1nc2n(n1)Cc1ccccc1-2
> 275	Cc1ccc(-c2nc(N)n3nc(-c4ccco4)nc3n2)cc1
233	CCOC(=O)C(=O)Nc1ccc2cccc([N+](=O)[O-])c2c1[N+](=O)[O-]
149 to 150	CCCC1=C(O)C(C(=O)CC)C(=O)OC1=O (stereo not drawn)
167 to 169	Cc1ccc(C(=S)c2cccc3c2NC(=O)C3)cc1
223 to 225	O=C1CCN(c2cc(Cl)cc3cccnc23)CC1
180	COc1ccc(CCN(C)CCc2ccc(NC(=O)c3cccc4c(=O)c5ccccc5[nH]c34)cc2)cc1OC
137 to 139	CCCOc1ccc(S(C)(=O)=O)cc1-c1nc(OC)c2[nH]nc(CC)c2n1
164	CC(C(=O)c1ccc(Cl)cc1)n1ncn(-c2ccc(N3CCN(Cc4ccccc4)CC3)cc2)c1=O (stereo not drawn)
224	Fc1ccc(N2CCC(N3CCN(c4cccc5cccnc45)CC3)CC2)c2ncccc12
139 to 140	CN1CCN(c2cccc(N)c2)C(=O)C1

melting point [°C]	SMILES
80 to 82	C=CCC(CC)(NC)C(=O)c1ccc(OCCO)cc1 (stereo not drawn)
184 to 186	O=C(O)COc1cc2c(c(Cl)c1Cl)C(=O)C(c1ccccc1)(C1CCCC1)C2 (stereo not drawn)
85 to 86	Cc1cccc(C2(C#N)C3CC4CC(C3)CC2C4)c1 (stereo not drawn)
172 to 174	CS(=O)(=O)c1ccc(-c2cnn(CC(F)(F)F)c(=O)c2NCCC#N)cc1
127 to 128	CCn1nc(-c2cccc(Cl)c2)c(C(C)=O)c(Nc2cccc3cccnc23)c1=O
> 290	Oc1cc(O)nc(C2CC2)n1
114 to 115	Cc1nc(-c2cc(CCc3ccccc3)no2)sc1C(=O)NCc1ccccc1
138 to 139	CCCN(CCC)C(=O)Cn1c(-c2ccc(C(F)(F)F)cc2)nc2cccnc21
75	CCOC(CCP(=O)(OCC)OCC)(C(=O)c1ccccc1)c1ccccc1 (stereo not drawn)
78 to 80	Cc1cccc(-c2n[nH]cc2-c2ccc(F)c(-c3csc(C(C)(C)O)n3)c2)n1
147 to 148	CC(C)(C)OC(=O)NCc1cccc(Nc2n[nH]c3ncnc(Nc4cccc(Cl)c4)c23)c1
137 to 139	CCCc1c(OCCCCCCc2ccc(C(=O)c3cccc(C(=O)O)c3)cc2CCC(=O)O)ccc2c1OCCC2=O
160 to 162	S=c1nc(-c2ccncc2)[nH]n1Cc1ccccc1
265 to 268	CCc1nc(C(=O)O)c(C(=O)O)[nH]1
211 to 213	COCCOc1cc2c(cc1-c1ccccc1F)NC(=O)CC(c1cccc(C#N)c1)=N2
175 to 177	CCS(=O)(=O)Nc1cc(C(=O)Nc2ccccc2)ccc1OC
148 to 152	C=C(C)C(=O)N(NC(=O)c1ccccc1)C(C)(C)C
115	C=CCO[C@H]1[C@@H](OCc2ccccc2)[C@@H](OCc2ccccc2)[C@H](OCc2ccccc2)[C@@H](OCc2ccccc2)[C@@]1(CCC)OC(=O)CCC (racemic)
103	CCc1ccc(-c2ccc(Cl)cc2)cc1
134 to 138	COc1c(S(=O)(=O)N2CCC[C@H]2C(=O)O)ccc(Cl)c1COc1cccc2c(C)cc(C)nc12
220 to 230	Cc1c(C(=O)Nc2ccc(N3CCC(N4CCOCC4)CC3)c(Br)c2)cnn1-c1ccc(C(F)(F)F)cc1
162 to 163	CC1(CO)Cn2cc([N+](=O)[O-])nc2O1 (stereo not drawn)
156 to 159	CSc1ncc2cc(Cc3ccccc3F)c(=O)n(C)c2n1

melting point [°C]	SMILES
119 to 123	O=C1C=C2CN(C(C(=O)C3CC3)c3ccccc3Cl)CCC2S1 (stereo not drawn)
99 to 100	CCC1(C)CCC(N)=CC1=O (stereo not drawn)
169 to 170	N#Cc1ccc(CCn2ccn(C3CCc4ccccc4C3)c2=S)cc1 (stereo not drawn)
208 to 210	CN(C(=O)OC(C)(C)C)C1CC=C(c2c[nH]c3cc([N+](=O)[O-])ccc23)CC1 (stereo not drawn)
60 to 63	CCc1ccc(-c2ccc(F)cc2)cc1
80	Cn1cncc1C(O)(c1ccc(Cl)cc1)c1ccc2nc(C=CC(N)=O)cc(-c3cccc(Cl)c3)c2c1 (stereo not drawn)
125 to 126	COc1ccc(Cn2nnnc2S(=O)(=O)c2ccc(C)cc2)cc1
158 to 162	Cc1cc(-c2ccccc2)n2nc(C(=O)N(C)C3CCCCC3)cc2n1
194	NNC(=O)CCCCCCCCOC1OC(CO)C(O)C(O)C1O (stereo not drawn)
155 to 160	CCOC(=O)N(C(C)=O)c1ccc(OCc2nc3ccccc3s2)cc1
104 to 105	CC(C)CC1(C(CC(C)Sc2cccs2)C(=O)NO)CCN(CCc2ccccc2)C1=O (stereo not drawn)
162 to 164	C=CCN(C)c1nc(-c2cc(OC)c(OC)c(OC)c2)nc2sc(C#N)c(C)c12
198 to 201	COc1cccc(NC(=O)Nc2ccc(N3CCN(C(=O)Nc4ccc(OCCO)cc4Cl)CC3)cc2)c1
146	N#CC1=C(C2CCCCCC2)Nc2n[nH]cc2C1c1ccccc1Cl (stereo not drawn)
127	O=CC1=C(Cl)C(=CO)CCC1
149 to 150	COC(=O)Cc1ccccc1NC(=S)NCN
91 to 93	CCOC(=O)c1cnc2c(c(C)nn2CC)c1O
175 to 176	CC(NC(=O)N1CCc2cc(S(=O)(=O)N3CCN(c4cccc(Cl)c4)CC3)ccc21)C(=O)O (stereo not drawn)
90 to 91	Cc1ccc(S(=O)(=O)OCC2CCc3ncsc3C2)cc1 (stereo not drawn)
121 to 123	CN(C)Cn1cnc2c1c(=O)n(C)c(=O)n2C
252	COc1ccc(C(=O)Nc2c(Cl)cncc2Cl)c2c1oc1ccc(NC(C)=O)cc12
167 to 168	CC(C)(C)OC(=O)N1C[C@@H]2C[C@H]1C(=O)N2C(C)(C)C

SMILES	melting point [°C]
NNC1=Nc2ccc(C(F)(F)F)cc2C(c2ccccc2)=NC1	127
O=C1CC([N+](=O)[O-])([N+](=O)[O-])CO1	100 to 102
CC(/C=C/c1cscc1-c1ccc2c(c1)C(C)(C)CCC2(C)C)=C\C(=O)O	192 to 193
[N-]=[N+]=N[C@H]1C[C@H](C(=O)O)C1	39 to 41
COC(=O)c1ccc(-c2cc(-c3ccc4c(c3)C(C)(C)CCC4(C)C)[nH]n2)cc1	155 to 156
O=[N+]([O-])c1ccc2c(c1)OP(=O)(N(CCCl)CCCl)NC2 (stereo not drawn)	123 to 126
CCCN1C(=O)CC2CCC(C)C3CCC4(C)OOC23C1O4 (single isomer, unassigned; (-))	125 to 126
